According to patent EP4722203A1, “3,4-DIHYDROPHTHALAZIN-1(2H)-ONE DERIVATIVE, AND PREPARATION METHOD THEREFOR AND USE THEREOF” (Academy of Military Medical Sciences, priority 2023, dated 2024):

Columns and labels:
[1] = system: human multiple myeloma NCI-H929 xenograft tumors; assay: In vivo antitumor activity against NCI-H929 transplanted tumors; parameters: species or system NOD/SCID mice; conditions: QD; for growth of NCI-H929 transplanted tumors (in words): 3 mg/kg and 10 mg/kg; for Tumor inhibition rate TGI (%) / Average volume (mm^3) (Day 10) / Initial volume (mm^3): oral gavage; for Tumor inhibition rate TGI (%): 10 consecutive days; for Initial volume (mm^3): baseline
Experimental: In this example, the human multiple myeloma NCI-H929 cell line was used as the cell model. The inhibitory effects of compounds on the growth of NOD/SCID mouse transplanted tumors of NCI-H929 tumor cells were determined. The evaluation methods and results are described below.
(§1) Human multiple myeloma NCI-H929 cells were routinely cultured in RPMI1640 containing 10% fetal bovine serum at 37°C in a 5% CO2 incubator. After three passages in vitro, when the cells reached over 80% confluence and the required confluence rate, the cells were digested and harvested. After washing with PBS, the cells were counted and the cell concentration was adjusted to approximately 5 × 10^7 cells/mL. The cells were then placed in 4 mL centrifuge tubes on ice for later use.
(§2) Female NOD/SCID mice aged 4-5 weeks were selected and subcutaneously inoculated with NCI-H929 cells ectopically. The mice were held in a lateral position, the forelimb axilla was disinfected with 75% alcohol, and 100 µL of the cell suspension was injected subcutaneously into the axilla using a 1 mL syringe ([…]/100 µL).
After the tumors grew to 90-150 mm^3, the animals were randomly divided into groups, 8 mice in each group, and administered according to different administration methods as follows: • Model control group: Administered with the same volume of Vehicle (DMSO: 0.5% sodium carboxymethyl cellulose: distilled water = 1:1:8) daily by gavage; • Control drug group 1: administered with pomalidomide solution at 10 mg/kg (mouse body weight) daily by gavage; • Control drug group 2: administered with CC-220 solution at 3 mg/kg (mouse body weight) daily by gavage; • Control drug group 3: administered with CC-220 solution at 10 mg/kg (mouse body weight) daily by gavage; • Experimental compound group 4: administered with compound I-4 solution at 3 mg/kg (mouse body weight) daily by gavage; • Experimental compound group 5: administered with compound I-4 solution at 10 mg/kg (mouse body weight) daily by gavage; • Experimental compound group 6: administered with compound I-8 solution at 3 mg/kg (mouse body weight) daily by gavage; • Experimental compound group 7: administered with compound I-8 solution at 10 mg/kg (mouse body weight) daily by gavage;
(§3) The route of administration was oral gavage, and the administration frequency was once daily, for 10 consecutive days. The first day of administration was defined as Day 1 of the experiment. Tumor volume changes in mice were measured and recorded every two days. Tumor volume was measured using a vernier caliper, in which the major axis (a) and minor axis (b) of the tumor were measured, and the tumor volume was calculated as tumor volume V (mm^3) = a x b^2/2. After the experiment, the mice were dissected and the tumor weight was measured. The data were entered and statistically analyzed using GraphPad Prism 6 software. The data are expressed as mean ± SEM (Standard Error of Mean), and one-way ANOVA was used. P ≤ 0.05 was considered statistically significant.

[2] = system: RPMI-8226-pomalidomide-R cells; assay: Antiproliferative activity against resistant cells, CCK-8 assay; type: cell-based; conditions: Homo sapiens, 144 hours incubation
Experimental: In this example, lenalidomide-resistant human multiple myeloma cells, including NCI-H929 (NCI-H929-Lenalidomide-R) and RPMI-8226 (RPMI-8226-Lenalidomide-R), and pomalidomide-resistant human multiple myeloma cells, including NCI-H929 (NCI-H929-pomalidomide-R) and RPMI-8226 (RPMI-8226-pomalidomide-R), were selected as cell models to determine the inhibitory activity of compound I-8 of the present invention against the proliferation of the resistant cells.
• ① I-8 was dissolved in DMSO to prepare a 10 mM stock solution. Compounds used within three months should be stored at room temperature in a desiccator; others could be stored at -20°C for long-term storage. • ② The I-8 stock solution and the reference compounds lenalidomide and pomalidomide were all diluted with DMSO. Their initial concentrations were 10 µM. In the experiments of lenalidomide-resistant human multiple myeloma cells (NCI-H929 (NCI-H929-Lenalidomide-R) and RPMI-8226 (RPMI-8226-Lenalidomide-R) and pomalidomide-resistant human multiple myeloma cells (NCI-H929 (NCI-H929-pomalidomide-R) and RPMI-8226 (RPMI-8226-pomalidomide-R), 3-fold serial dilution with 11 concentration points was performed, with the lowest concentration of […]. The resulting solutions were shaken on a shaker for 5 minutes.
• ① The NCI-H929-Lenalidomide-R, RPMI-8226-Lenalidomide-R, NCI-H929-pomalidomide-R, and RPMI-8226-pomalidomide-R cells in logarithmic growth phase were inoculated in a 96-well plate, 20,000 to 30,000 cells per well, and the plate was pre-cultured for 24 hours in an incubator (at 37°C and 5% CO2). • ® The culture medium in the plate was replaced, and the compounds and the positive controls with corresponding concentrations were added to the plated at a volume of 50 µL. • ③ The plate was incubated for 144 hours in an incubator, then 15 µL of CCK-8 solution was added to each well, and the plate was incubated in the incubator for another 1-4 hours. • ④ The absorbance at 450 nm was measured using a microplate reader.
• ① Calculating % Inhibition: [formula] • ② Calculating IC50 value of compound and plotting dose-response curve: The IC50 value was calculated by fitting the % Inhibition and the logarithm of compound concentration to a nonlinear regression (dose response-variable slope) by using GraphPad 6.0. Y = Bottom + (Top−Bottom)/(1+10^(∧)((LogIC50−X)*HillSlope)) [formula] X: log of inhibitor concentration; Y: % Inhibition.
After calculating % Inhibition, a dose-response curve was plotted with the logarithm of the test compound concentration as the x-axis and the average cell viability as the y-axis, and the IC50 value was obtained by fitting.

[3] = system: human multiple myeloma NCI-H929 xenograft tumors; assay: In vivo activity in combination with dexamethasone against NCI-H929 transplanted tumor; parameters: species or system NOD/SCID mice; conditions: each drug 3 mg/kg, QD; for Tumor inhibition rate TGI (%) / Average volume (mm^3) (Day 10) / Initial volume (mm^3): oral gavage, alone or combined; for Tumor inhibition rate TGI (%): 10 consecutive days; for Initial volume (mm^3): baseline
Experimental: In this example, human multiple myeloma NCI-H929 cell line was selected as the cell model to determine the inhibitory effects of compound and dexamethasone alone, as well as combination thereof on the growth of NOD/SCID mouse transplanted tumors of NCI-H929 tumor cells. The evaluation methods and results are described below.
as §1, §2
After the tumors grew to 90-150 mm^3, the animals were randomly divided into groups, 8 mice in each group, and administered according to different administration methods as follows: • Model control group: Administered with the same volume of Vehicle (DMSO: 0.5% sodium carboxymethyl cellulose: distilled water = 1:1:8) daily by gavage; • Test group 1: administered with dexamethasone (Dex) solution at 3 mg/kg (mouse body weight) daily by gavage; • Test group 2: administered with I-4 solution at 3 mg/kg (mouse body weight) daily by gavage; • Test group 3: administered with I-8 solution at 3 mg/kg (mouse body weight) daily by gavage; • Test group 4: administered with dexamethasone at 3 mg/kg (mouse body weight) and 1-4 solution at 3 mg/kg (mouse body weight) daily by gavage; • Test group 5: administered with dexamethasone at 3 mg/kg (mouse body weight) and I-8 solution at 3 mg/kg (mouse body weight) daily by gavage;
as §3

CN1Cc2c(NCc3ccc(CN4CCN(c5ccc(C#N)c(F)c5)CC4)cc3)cccc2C(=O)N1C1CCC(=O)NC1=O (stereo not drawn) [I-8]
growth of NCI-H929 transplanted tumors (in words) [1]: significantly inhibited the growth
Tumor inhibition rate TGI (%) ([1]; 3 mg/kg): 84.25%
Average volume (mm^3) (Day 10) ([1]; 3 mg/kg): 500.1 mm^3
Initial volume (mm^3) ([1]; 3 mg/kg): 193.5 mm^3
Tumor inhibition rate TGI (%) ([1]; 10 mg/kg): 100.72%
Average volume (mm^3) (Day 10) ([1]; 10 mg/kg): 197.3 mm^3
Initial volume (mm^3) ([1]; 10 mg/kg): 211.3 mm^3
IC50 [2]: 0.314 µM
growth of NCI-H929 transplanted tumors (in words) [3]: effectively inhibit the growth
Tumor inhibition rate TGI (%) [3]: 82.64%
Average volume (mm^3) (Day 10) [3]: 458.1 mm^3
Initial volume (mm^3) [3]: 183.3 mm^3

CN1Cc2c(N)cccc2C(=O)N1C1CCC(=O)NC1=O (stereo not drawn) [I-4, 3-(5-amino-3-methyl-1-oxo-3,4-dihydrophthalazin-2(1H)-yl)piperidin-2,6-dione]
growth of NCI-H929 transplanted tumors (in words) [1]: significantly inhibited the growth
Tumor inhibition rate TGI (%) ([1]; 3 mg/kg): 66.53%
Average volume (mm^3) (Day 10) ([1]; 3 mg/kg): 843.1 mm^3
Initial volume (mm^3) ([1]; 3 mg/kg): 191.6 mm^3
Tumor inhibition rate TGI (%) ([1]; 10 mg/kg): 92.82%
Average volume (mm^3) (Day 10) ([1]; 10 mg/kg): 344.5 mm^3
Initial volume (mm^3) ([1]; 10 mg/kg): 204.8 mm^3
growth of NCI-H929 transplanted tumors (in words) [3]: effectively inhibit the growth
Tumor inhibition rate TGI (%) [3]: 68.03%
Average volume (mm^3) (Day 10) [3]: 689.9 mm^3
Initial volume (mm^3) [3]: 183.9 mm^3

Nc1cccc2c1C(=O)N(C1CCC(=O)NC1=O)C2=O (stereo not drawn) [Pomalidomide, reference compound]
Tumor inhibition rate TGI (%) ([1]; 10 mg/kg): 80.09%
Average volume (mm^3) (Day 10) ([1]; 10 mg/kg): 573.1 mm^3
Initial volume (mm^3) ([1]; 10 mg/kg): 185.6 mm^3
IC50 [2]: > 100 µM
